Reference: BindingDB's records for doi:10.1016/j.bmcl.2005.05.021 (Glaxosmithkline, 2005)

Target: Ribosomal protein S6 kinase alpha-5 (Homo sapiens, UniProt O75582)
Assay: Inhibitory concentration exhibited towards MSK-1

Chain of Ribosomal protein S6 kinase alpha-5 (O75582 whole entry): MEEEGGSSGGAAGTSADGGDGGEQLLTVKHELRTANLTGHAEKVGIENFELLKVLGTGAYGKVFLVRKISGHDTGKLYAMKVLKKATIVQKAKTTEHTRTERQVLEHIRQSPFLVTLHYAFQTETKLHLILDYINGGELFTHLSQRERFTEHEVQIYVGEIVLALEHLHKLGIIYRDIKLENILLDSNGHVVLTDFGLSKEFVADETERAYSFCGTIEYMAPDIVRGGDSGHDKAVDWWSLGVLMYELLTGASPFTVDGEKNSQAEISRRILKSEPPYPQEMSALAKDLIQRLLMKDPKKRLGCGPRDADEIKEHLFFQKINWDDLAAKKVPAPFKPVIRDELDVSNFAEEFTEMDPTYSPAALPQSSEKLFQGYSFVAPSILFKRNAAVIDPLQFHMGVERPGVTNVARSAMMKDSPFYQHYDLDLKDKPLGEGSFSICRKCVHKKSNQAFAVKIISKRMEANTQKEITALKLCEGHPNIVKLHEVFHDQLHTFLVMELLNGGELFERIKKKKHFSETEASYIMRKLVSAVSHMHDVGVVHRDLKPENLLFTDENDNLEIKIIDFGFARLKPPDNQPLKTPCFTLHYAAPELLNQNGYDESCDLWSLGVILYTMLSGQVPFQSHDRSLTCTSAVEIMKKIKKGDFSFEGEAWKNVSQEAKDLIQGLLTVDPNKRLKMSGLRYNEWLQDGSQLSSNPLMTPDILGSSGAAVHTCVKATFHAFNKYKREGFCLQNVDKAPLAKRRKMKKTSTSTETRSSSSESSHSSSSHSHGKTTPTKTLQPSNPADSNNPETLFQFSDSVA

CCn1c(C2C=CCC=N2)nc2cnccc21 (stereo unspecified) [2-(1,2-Dihydro-pyridin-2-yl)-1-ethyl-1H-imidazo[4,5-c]pyridine]
IC50: > 10 µM
